Experimental findings from patent publication US8114880B2, “Piperidine or piperazine substituted tetrahydro-naphthalene-1-carboxylic acid MTP inhibiting compounds” (Janssen Pharmaceutica N.V., priority 2006, dated 2012) are described below.

The experiment deals with MTP (Homo sapiens, UniProt P55157). The experiment can be described thus: MTP assay (triglyceride transfer from donor to acceptor vesicles). It is filed as biochemical. Particulars: MTP activity, percent triglyceride transfer from donor to acceptor vesicles, 37° C. How it is done: MTP activity was measured using an assay similar to one described by J. R. Wetterau and D. B. Zilversmit in Chemistry and Physics of Lipids, 38, 205-222 (1985). To prepare the donor and acceptor vesicles, the appropriate lipids in chloroform were put into a glass test tube and dried under a stream of nitrogen. A buffer containing 15 mM Tris-HCl pH 7.5, 1 mM EDTA, 40 mM NaCl, 0.02% NaN3 (assay buffer) was added to the dried lipid. The mixture was vortexed briefly and the lipids were then allowed to hydrate for 20 minutes on ice. Vesicles were then prepared by bath sonication (Branson 2200) at room temperature for maximum 15 minutes. Butylated hydroxytoluene was included in all vesicle preparations at a concentration of 0.1%. The lipid transfer assay mixture contained donor vesicles (40 nmol phosphatidylcholine, 7.5 mol % of cardiolipin and 0.25 mol % glycerol tri [1-^14C]-oleate), acceptor vesicles (240 nmol phosphatidylcholine) and 5 mg BSA in a total volume of 675 μl in a 1.5 ml microcentrifuge tube. Test compounds were added dissolved in DMSO (0.13% final concentration). After 5 minutes of pre-incubation at 37° C., the reaction was started by the addition of MTP in 100 μl dialysis buffer. The reaction was stopped by the addition of 400 μl DEAE-52 cellulose pre-equilibrated in 15 mM Tris-HCl pH 7.5, 1 mM EDTA, 0.02% NaN3 (1:1, vol/vol). The mixture was agitated for 4 minutes and centrifuged for 2 minutes at maximum speed in an Eppendorf centrifuge (4° C.) to pellet the DEAE-52-bound donor vesicles. An aliquot of the supernatant containing the acceptor liposomes was counted and the [^14C]-counts were used to calculate the percent triglyceride transfer from donor to acceptor vesicles.
Chain of MTP (P55157 19-894, species assumed): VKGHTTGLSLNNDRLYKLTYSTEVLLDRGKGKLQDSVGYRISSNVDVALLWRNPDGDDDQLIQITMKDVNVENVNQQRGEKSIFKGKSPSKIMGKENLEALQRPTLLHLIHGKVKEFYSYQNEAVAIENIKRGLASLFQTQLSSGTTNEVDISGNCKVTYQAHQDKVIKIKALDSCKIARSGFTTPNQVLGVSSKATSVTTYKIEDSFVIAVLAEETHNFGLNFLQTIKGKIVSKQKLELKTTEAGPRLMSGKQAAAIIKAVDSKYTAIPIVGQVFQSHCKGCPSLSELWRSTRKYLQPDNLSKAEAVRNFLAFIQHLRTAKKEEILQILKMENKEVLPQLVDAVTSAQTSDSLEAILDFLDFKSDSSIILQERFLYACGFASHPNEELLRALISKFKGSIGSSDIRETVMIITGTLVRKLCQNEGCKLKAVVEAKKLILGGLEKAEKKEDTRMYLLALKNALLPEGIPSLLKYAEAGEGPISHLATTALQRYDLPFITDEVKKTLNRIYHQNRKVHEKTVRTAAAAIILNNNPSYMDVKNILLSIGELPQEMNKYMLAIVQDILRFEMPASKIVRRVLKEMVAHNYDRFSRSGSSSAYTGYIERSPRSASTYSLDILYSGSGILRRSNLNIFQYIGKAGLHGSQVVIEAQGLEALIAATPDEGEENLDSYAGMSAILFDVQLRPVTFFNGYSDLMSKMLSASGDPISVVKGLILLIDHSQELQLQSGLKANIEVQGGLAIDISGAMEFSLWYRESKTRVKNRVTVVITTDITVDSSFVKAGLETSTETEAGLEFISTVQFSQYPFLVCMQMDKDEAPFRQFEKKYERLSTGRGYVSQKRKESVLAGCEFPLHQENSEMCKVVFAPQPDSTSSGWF
Chain of MTP (P07237 18-508 partner, species assumed): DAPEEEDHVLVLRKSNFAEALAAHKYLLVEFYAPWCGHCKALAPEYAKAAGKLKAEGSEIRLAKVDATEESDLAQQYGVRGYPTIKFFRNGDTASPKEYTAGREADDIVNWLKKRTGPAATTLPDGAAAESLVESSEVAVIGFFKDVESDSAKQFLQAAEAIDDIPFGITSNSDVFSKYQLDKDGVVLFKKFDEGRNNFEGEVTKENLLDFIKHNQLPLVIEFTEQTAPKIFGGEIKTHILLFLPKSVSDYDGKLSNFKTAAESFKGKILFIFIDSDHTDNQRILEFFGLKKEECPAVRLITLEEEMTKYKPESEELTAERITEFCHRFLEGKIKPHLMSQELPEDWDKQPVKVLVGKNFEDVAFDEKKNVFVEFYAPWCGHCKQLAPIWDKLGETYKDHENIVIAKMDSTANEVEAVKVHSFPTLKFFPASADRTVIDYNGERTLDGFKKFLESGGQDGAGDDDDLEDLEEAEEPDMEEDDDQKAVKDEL
By IC50 is commonly meant the concentration that gives 50% inhibition. `CCOC(=O)[C@@H]1CCCN1C(=O)[C@@]1(c2ccccc2)CC[C@H](C(=O)N2CCC(NC(=O)c3cccn(C)c3=O)CC2)c2ccccc21` [Co. No. 149] gave an IC50 of more than 10000 nM.
Then `Cn1cccc(C(=O)NC2CCN(C(=O)[C@H]3CC[C@@](C(=O)N[C@@H](CCC(N)=O)C(=O)OC(C)(C)C)(c4ccccc4)c4ccccc43)CC2)c1=O` [Co. No. 170], with more than 10000 nM; and `COc1ccccc1C(=O)NC1CCN(C(=O)[C@H]2CC[C@@](C(=O)N[C@@H](CC(N)=O)C(=O)O)(c3ccccc3)c3ccccc32)CC1` [Co. No. 128], with more than 10000 nM.
The value for `CCOC(=O)[C@@H](Cc1ccccc1)NC(=O)[C@@]1(c2ccccc2)CC[C@H](C(=O)N2CCC(NC(=O)c3cccn(C)c3=O)CC2)c2ccccc21` [Co. No. 155] was 731 nM; that for `Cn1cccc(C(=O)NC2CCN(C(=O)[C@H]3CC[C@@](C(=O)N[C@@H](Cc4ccccc4)C(=O)O)(c4ccccc4)c4ccccc43)CC2)c1=O` [Co. No. 195] was more than 10000 nM.
As to `CCOC(=O)[C@@H]1CCCN1C(=O)[C@@]1(c2ccccc2)CC[C@H](C(=O)N2CCC(NC(=O)c3ccccc3OC)CC2)c2ccccc21` [Co. No. 76], it took 326 nM to reach half-maximal inhibition (IC50).
Then `CC(C)OC(=O)NCCCC[C@@H](NC(=O)[C@@]1(c2ccccc2)CC[C@H](C(=O)N2CCC(NC(=O)c3cccn(C)c3=O)CC2)c2ccccc21)C(=O)OC(C)C` [Co. No. 242], with 2360 nM; and `CCOC(=O)[C@]1(c2ccccc2)CC[C@H](C(=O)N2CCN(C(=O)c3ccccc3)CC2)c2ccccc21` [Co. No. 29], with 3340 nM.
The compound `CCOC(=O)[C@H]1CCCN1C(=O)[C@@]1(c2ccccc2)CC[C@H](C(=O)N2CCC(NC(=O)c3cccn(C)c3=O)CC2)c2ccccc21` [Co. No. 150] showed a half-inhibitory concentration (IC50) of more than 10000 nM.
For the compound `CCOC(=O)[C@H](C)NC(=O)[C@@]1(c2ccccc2)CC[C@H](C(=O)N2CCC(NC(=O)c3cccn(C)c3=O)CC2)c2ccccc21` [Co. No. 135], the IC50 is 1340 nM.
`CC(C)C[C@H](NC(=O)[C@@]1(c2ccccc2)CC[C@H](C(=O)N2CCC(NC(=O)c3cccn(C)c3=O)CC2)c2ccccc21)C(=O)O` [Co. No. 189] gave an IC50 of more than 10000 nM.
Turning to `C[C@H](NC(=O)[C@@]1(c2ccccc2)CC[C@H](C(=O)N2CCC(NC(=O)c3cccn(C)c3=O)CC2)c2ccccc21)C(=O)OC(C)(C)C` [Co. No. 161], it took 458 nM to reach half-maximal inhibition (IC50).
The value for `COc1ccccc1C(=O)NC1CCN(C(=O)[C@H]2CC[C@@](C(=O)NC(C(=O)O)C(=O)O)(c3ccccc3)c3ccccc32)CC1` [Co. No. 117] was 4750 nM; that for `CCOC(=O)[C@]1(c2ccccc2)CC[C@@H](C(=O)N2CCC(N(C)C(=O)c3ccccc3OC)CC2)c2ccccc21` [Co. No. 270] was 14.1 nM; that for `COc1ccccc1C(=O)NC1CCN(C(=O)[C@H]2CC[C@@](C(=O)N[C@@H](CCCCN)C(=O)O)(c3ccccc3)c3ccccc32)CC1` [Co. No. 132] was 355 nM.
For `Cn1cccc(C(=O)NC2CCN(C(=O)[C@H]3CC[C@@](C(=O)NC(CCCCN)C(=O)O)(c4ccccc4)c4ccccc43)CC2)c1=O` (stereo partly shown) [Co. No. 190], the half-inhibitory concentration (IC50) was more than 10000 nM.
The compound `CCOC(=O)[C@]1(c2ccccc2)CC[C@@H](C(=O)N2CCN(CC(=O)c3ccccc3OC)CC2)c2ccccc21` [Co. No. 259] had a half-inhibitory concentration (IC50) of 63.1 nM.
With `COc1ccccc1C(=O)NC1CCN(C(=O)[C@H]2CC[C@@](C(=O)N[C@H](Cc3ccccc3)C(=O)O)(c3ccccc3)c3ccccc32)CC1` [Co. No. 100], the midpoint of inhibition, the IC50, lay at 6050 nM.
Then `COc1ccccc1C(=O)NC1CCN(C(=O)[C@H]2CC[C@@](C(=O)N[C@@H](COC(C)(C)C)C(=O)O)(c3ccccc3)c3ccccc32)CC1` [Co. No. 120], with more than 10000 nM; and `COC(=O)[C@@H](CCCCNC(=O)OC(C)C)NC(=O)[C@@]1(c2ccccc2)CC[C@H](C(=O)N2CCC(NC(=O)c3cccn(C)c3=O)CC2)c2ccccc21` [Co. No. 240], with 286 nM; and `COc1ccccc1C(=O)NC1CCN(C(=O)[C@H]2CC[C@@](C(=O)N[C@@H](Cc3c[nH]c4ccccc34)C(=O)OC(C)(C)C)(c3ccccc3)c3ccccc32)CC1` [Co. No. 114], with 203 nM.
The compound `CCOC(=O)[C@]1(c2ccccc2)CC[C@@H](C(=O)N2CCC(NC(=O)c3ccccc3N3CCN(C)CC3)CC2)c2ccccc21` [Co. No. 268] had a concentration for half-maximal inhibition (IC50) of 14.5 nM.
`Cn1cccc(C(=O)NC2CCN(C(=O)[C@H]3CC[C@@](C(=O)N4C[C@H](O)C[C@H]4C(=O)O)(c4ccccc4)c4ccccc43)CC2)c1=O` [Co. No. 192] gave a 50% inhibitory concentration (IC50) of more than 10000 nM.
`COc1ccccc1C(=O)NC1CCN(C(=O)[C@H]2CC[C@@](C(=O)N[C@@H](C(=O)O)c3ccccc3)(c3ccccc3)c3ccccc32)CC1` [Co. No. 99] gave an IC50 of more than 10000 nM.
Regarding `COC(=O)[C@@H](CCCCNC(=O)OC(C)(C)C)NC(=O)[C@@]1(c2ccccc2)CC[C@H](C(=O)N2CCC(NC(=O)c3cccn(C)c3=O)CC2)c2ccccc21` [Co. No. 237], the IC50 is 234 nM.
The value for `Cn1cccc(C(=O)NC2CCN(C(=O)[C@H]3CC[C@@](C(=O)N[C@@H](CC(=O)OC(C)(C)C)C(=O)OC(C)(C)C)(c4ccccc4)c4ccccc43)CC2)c1=O` [Co. No. 169] was 1750 nM; that for `CCOC(=O)CNC(=O)[C@@]1(c2ccccc2)CC[C@H](C(=O)N2CCC(NC(=O)c3cccn(C)c3=O)CC2)c2ccccc21` [Co. No. 133] was 796 nM.
The compound `Cn1cccc(C(=O)NC2CCN(C(=O)[C@H]3CC[C@@](C(=O)N[C@@H](Cc4ccc(O)cc4)C(=O)OC(C)(C)C)(c4ccccc4)c4ccccc43)CC2)c1=O` [Co. No. 180] gave an IC50 of 2670 nM.
With `COc1ccccc1C(=O)NC1CCN(C(=O)[C@H]2CC[C@@](C(=O)N(C)CC(=O)OC(C)(C)C)(c3ccccc3)c3ccccc32)CC1` [Co. No. 87], the half-maximal inhibitory concentration (IC50) is 11.7 nM.
With `COC(=O)CNC(=O)[C@@]1(c2ccccc2)CC[C@H](C(=O)N2CCC(NC(=O)c3cccn(C)c3=O)CC2)c2ccccc21` [Co. No. 158], the IC50 was 847 nM.
Take `COc1ccccc1C(=O)NC1CCN(C(=O)[C@H]2CC[C@@](C(=O)N[C@H](C)C(=O)OC(C)(C)C)(c3ccccc3)c3ccccc32)CC1` [Co. No. 93]: the IC50 was 9.33 nM.
Take `CCOC(=O)[C@@H](NC(=O)[C@@]1(c2ccccc2)CC[C@H](C(=O)N2CCC(NC(=O)c3cccn(C)c3=O)CC2)c2ccccc21)c1ccccc1` [Co. No. 153]: the half-maximal inhibitory concentration (IC50) was 1110 nM.
In turn, `COc1ccccc1C(=O)NC1CCN(C(=O)[C@H]2CC[C@@](C(=O)N[C@@H](C(=O)O)C(C)C)(c3ccccc3)c3ccccc32)CC1` [Co. No. 118] showed an IC50 of 887 nM.
Then `COc1ccccc1C(=O)NC1CCN(C(=O)[C@H]2CC[C@@](C(=O)N[C@@H](C)C(=O)OC(C)(C)C)(c3ccccc3)c3ccccc32)CC1` [Co. No. 101], with 4.2 nM.
On to `COC(=O)[C@H](CCCCNC(=O)[C@@]1(c2ccccc2)CC[C@H](C(=O)N2CCC(NC(=O)c3cccn(C)c3=O)CC2)c2ccccc21)NC(C)=O` [Co. No. 236], for which the IC50 was 2670 nM.
`CCOC(=O)[C@H](NC(=O)[C@@]1(c2ccccc2)CC[C@H](C(=O)N2CCC(NC(=O)c3cccn(C)c3=O)CC2)c2ccccc21)c1ccccc1` [Co. No. 152] gave a concentration for half-maximal inhibition (IC50) of 1630 nM.
`Cn1cccc(C(=O)NC2CCN(C(=O)[C@H]3CC[C@@](C(=O)NCCC(=O)O)(c4ccccc4)c4ccccc43)CC2)c1=O` [Co. No. 186]: the IC50 is more than 10000 nM.
`CCNC(=O)[C@]1(c2ccccc2)CC[C@@H](C(=O)N2CCC(NC(=O)c3ccccc3OC)CC2)c2ccccc21` [Co. No. 38] showed an IC50 of 3820 nM.
The value for `COc1ccccc1C(=O)NC1CCN(C(=O)[C@H]2CC[C@@](C(=O)N[C@H](C(=O)OC(C)(C)C)c3ccccc3)(c3ccccc3)c3ccccc32)CC1` [Co. No. 111] was 219 nM.
The compound `CN(CC(=O)O)C(=O)[C@@]1(c2ccccc2)CC[C@H](C(=O)N2CCC(NC(=O)c3cccn(C)c3=O)CC2)c2ccccc21` [Co. No. 185] gave a half-inhibitory concentration (IC50) of more than 10000 nM.
`Cn1cccc(C(=O)NC2CCN(C(=O)[C@H]3CC[C@@](C(=O)N[C@H](Cc4ccccc4)C(=O)O)(c4ccccc4)c4ccccc43)CC2)c1=O` [Co. No. 196] had an IC50 of more than 10000 nM.
On to `C=CCOC(=O)[C@]1(c2ccccc2)CC[C@H](C(=O)N2CCC(NC(=O)c3ccccc3)CC2)c2ccccc21` [Co. No. 12], for which the 50% inhibitory concentration (IC50) was 778 nM.
The compound `CC(C)OC(=O)CCCCNC(=O)[C@@]1(c2ccccc2)CC[C@H](C(=O)N2CCC(NC(=O)c3cccn(C)c3=O)CC2)c2ccccc21` [Co. No. 227] had an IC50 of 228 nM.
In turn, `CCOC(=O)CC(C)NC(=O)[C@@]1(c2ccccc2)CC[C@H](C(=O)N2CCC(NC(=O)c3cccn(C)c3=O)CC2)c2ccccc21` (mixture of isomers) [Co. No. 223] had an IC50 of 1790 nM.
With `Cn1cccc(C(=O)NC2CCN(C(=O)[C@H]3CC[C@@](C(=O)NCCCCCC(=O)OC(C)(C)C)(c4ccccc4)c4ccccc43)CC2)c1=O` [Co. No. 230], the IC50 is 170 nM.
`CCOC(=O)CC[C@H](NC(=O)[C@@]1(c2ccccc2)CC[C@H](C(=O)N2CCC(NC(=O)c3cccn(C)c3=O)CC2)c2ccccc21)C(=O)OCC` [Co. No. 146] showed an IC50 of 776 nM.
